The values below come from US20170334899A1, “AMINO-SUBSTITUTED ISOTHIAZOLES” (Bayer Pharma Aktiengesellschaft, priority 2014, published 2017).

For test [1], the target named is T1, catalytic domain of human Bub1 (amino acids 704-1085) (Homo sapiens, UniProt O43683).
T1 construct: catalytic domain of human Bub1 (amino acids 704-1085); His6 (N); made in house; host or cells: insect cells (Hi5)
The experiment in a line: Bub1 kinase assay (TR-FRET). In kind it is biochemical. The conditions noted are these: 10 μM ATP, avg, read-out: Bub1 avg (IC50 [mol/l]). The method, boiled down: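 Readout is the 665/620 nm TR-FRET ratio from anti-phosphoserine antibody, Eu-labelled anti-mouse IgG and streptavidin-XL665, scaled between no-enzyme and uninhibited controls. Reaction: 1 μM biotinylated peptide, 10 μM ATP, 60 min, 22 °C, after 15 min compound preincubation with His6-Bub1 (704-1085, insect-expressed, ~200 ng/ml).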
Background: Time-resolved FRET reads energy transfer from a long-lived donor to a nearby acceptor.

Test [2] relates to human cervical tumor cell line HeLa (ATCC CCL-2). The experiment in a line: SAC-Formation - Nocodazole-Induced Assay. In kind it is cell-based. The conditions noted are these: 24 h, HeLa cells, nocodazole 0.1 μg/ml together with test compound, decrease of mitotic cells (phospho-histone H3 Ser10). The method, boiled down:
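Loss of phospho-histone H3 Ser10-positive cells, counted against Hoechst-stained nuclei by high-content imaging, marked mitotic breakthrough. Compounds (0.005–20 μM, 0.5% DMSO) were co-dosed with 0.1 μg/ml nocodazole onto HeLa cells for 24 h at 37 °C. Curves were fitted with a four-parameter Hill equation.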

The structures appear in SMILES notation. pIC50: −log10 of the molar value. Where “and” joins values, the source holds several entries; their conditions need not be identical. Equal entries are not always repeated. Structures can show the parent of a compound that is named as a salt. Bounds are passed on as bounds.

T1 sequence (O43683 704-1085): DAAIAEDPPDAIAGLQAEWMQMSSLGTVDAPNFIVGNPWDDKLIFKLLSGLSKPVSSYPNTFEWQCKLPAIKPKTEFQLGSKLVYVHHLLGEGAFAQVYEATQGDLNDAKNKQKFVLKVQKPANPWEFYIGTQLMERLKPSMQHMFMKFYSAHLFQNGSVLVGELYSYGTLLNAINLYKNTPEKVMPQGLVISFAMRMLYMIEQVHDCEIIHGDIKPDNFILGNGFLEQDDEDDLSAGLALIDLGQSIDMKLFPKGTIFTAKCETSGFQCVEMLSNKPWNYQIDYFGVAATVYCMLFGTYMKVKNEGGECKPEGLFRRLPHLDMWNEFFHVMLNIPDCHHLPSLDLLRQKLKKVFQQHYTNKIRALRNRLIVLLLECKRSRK

With `Cc1nsc(Nc2cncc(C(F)(F)F)n2)c1C(=O)Nc1ccc(OCC2CCCN(C(=O)OC(C)(C)C)C2)nc1` (centres unmarked) [Example 166, tert-butyl 3-{[(5-{[(3-methyl-5-{[6-(trifluoromethyl)pyrazin-2-yl]amino}-1,2-thiazol-4-yl)carbonyl]amino}pyridin-2-yl)oxy]methyl}piperidine-1-carboxylate], the pIC50 in test [1] is less than 4.70; in test [2] (Homo sapiens, HeLa) it was 7.28.

As to `Cc1nsc(Nc2cncc(C(F)(F)F)n2)c1C(=O)Nc1ccc(C(=O)NC2CCN(CC(F)(F)F)CC2)cc1` [Example 167, 3-methyl-N-(4-{[1-(2,2,2-trifluoroethyl)piperidin-4-yl]carbamoyl}phenyl)-5-{[6-(trifluoromethyl)pyrazin-2-yl]amino}-1,2-thiazole-4-carboxamide], the pIC50 in test [1] was less than 4.70; in test [2] (Homo sapiens, HeLa), 7.04.

Consider `Cc1nsc(Nc2cncc(C(F)(F)F)n2)c1C(=O)Nc1ccc(F)c(OC2CCN(C(=O)OC(C)(C)C)CC2)c1` [Example 168, tert-butyl 4-(2-fluoro-5-{[(3-methyl-5-{[6-(trifluoromethyl)pyrazin-2-yl]amino}-1,2-thiazol-4-yl)carbonyl]amino}phenoxy)piperidine-1-carboxylate], for which the pIC50 in test [1] was less than 4.70; in test [2] (Homo sapiens, HeLa) it was 7.77.

As for `Cc1nsc(Nc2cnc3ccccc3n2)c1C(=O)Nc1ccc(N2CCOCC2)nc1` [Example 169, 3-methyl-N-[6-(morpholin-4-yl)pyridin-3-yl]-5-(quinoxalin-2-ylamino)-1,2-thiazole-4-carboxamide], the pIC50 is less than 4.70 in test [1] and 5.60 in test [2] (Homo sapiens, HeLa).

`Cc1nsc(Nc2ccc(C#N)cn2)c1C(=O)Nc1ccc(N[C@@H](C)C(=O)OC(C)(C)C)nc1` [Example 170, tert-butyl N-{5-[({5-[(5-cyanopyridin-2-yl)amino]-3-methyl-1,2-thiazol-4-yl}carbonyl)amino]pyridin-2-yl}alaninate]: the pIC50 was less than 4.70 in test [1] and 5.64 in test [2] (Homo sapiens, HeLa).

`Cc1nsc(Nc2ccc(C#N)cn2)c1C(=O)Nc1ccc(NC2CCCN(C(=O)OC(C)(C)C)C2)nc1` (centres unmarked) [Example 171, tert-butyt 3-({5-[({5-[(5-cyanopyridin-2-yl)amino]-3-methyl-1,2-thiazol-4-yl}carbonyl)amino]pyridin-2-yl}amino)piperidine-1-carboxylate]: the pIC50 was less than 4.70 in test [1] and 7.15 in test [2] (Homo sapiens, HeLa).

Turning to `Cc1nsc(Nc2cnc3ccccc3n2)c1C(=O)Nc1ccc(NC2CC2)nc1` [Example 172, N-[6-(cyclopropylamino)pyridin-3-yl]-3-methyl-5-(quinoxalin-2-ylamino)-1,2-thiazole-4-carboxamide], the pIC50 is < 4.70 and 4.74 in test [1]; 5.46 in test [2] (Homo sapiens, HeLa).

For the compound `COc1ccc(NC(=O)c2c(C)nsc2Nc2ccc(C#N)cn2)c(N2CCOCC2)n1` [Example 173, 5-[(5-cyanopyridin-2-yl)amino]-N-[6-methoxy-2-(morpholin-4-yl)pyridin-3-yl]-3-methyl-1,2-thiazole-4-carboxamide], the pIC50 in test [1] was less than 4.70; in test [2] (Homo sapiens, HeLa), 5.72.

Regarding `Cc1nsc(Nc2cnc(C(F)(F)F)cn2)c1C(=O)Nc1ccc(F)c(OCC2CCCN(CC(F)F)C2)c1` (centres unmarked) [Example 335, N-(3-{[1-(2,2-difluoroethyl)piperidin-3-yl]methoxy}-4-fluorophenyl)-3-methyl-5-{[5-(trifluoromethyl)pyrazin-2-yl]amino}-1,2-thiazole-4-carboxamide], the pIC50 in test [1] is not above 4.70; in test [2], 7.26.

On to `Cc1nsc(Nc2cnc(C(F)(F)F)cn2)c1C(=O)Nc1ccc(O[C@@H]2CCN(CC(F)(F)F)C2)nc1` [Example 421, 3-Methyl-N-(6-{[(3R)-1-(2,2,2-trifluoroethyl)pyrrolidin-3-yl]oxy}pyridin-3-yl)-5-{[5-(trifluoromethyl)pyrazin-2-yl]amino}-1,2-thiazole-4-carboxamide], for which the pIC50 in test [1] was not above 4.70; in test [2], 6.47.

For `Cc1nsc(Nc2cnc(C(F)(F)F)cn2)c1C(=O)Nc1ccc(OC[C@@H]2CCCN(CCC(F)(F)F)C2)nc1` [Example 422, 3-Methyl-5-{[5-(trifluoromethyl)pyrazin-2-yl]amino}-N-(6-{[(3R)-1-(3,3,3-trifluoropropyl)piperidin-3-yl]methoxy}pyridin-3-yl)-1,2-thiazole-4-carboxamide], the pIC50 is not above 4.70 in test [1] and 7.40 in test [2].

In the case of `Cc1nsc(Nc2cnc(C(F)(F)F)cn2)c1C(=O)Nc1ccc(O[C@@H]2CCN(CCC(F)(F)F)C2)nc1` [Example 423, 3-Methyl-5-{[5-(trifluoromethyl)pyrazin-2-yl]amino}-N-(6-{[(3R)-1-(3,3,3-trifluoropropyl)pyrrolidin-3-yl]oxy}pyridin-3-yl)-1,2-thiazole-4-carboxamide], the pIC50 was not above 4.70 in test [1] and 7.33 in test [2].

As for `Cc1nsc(Nc2cnc(C(F)(F)F)cn2)c1C(=O)Nc1ccc(OC2CCN(CCC(F)(F)F)CC2)nc1` [Example 426, 3-Methyl-5-{[5-(trifluoromethyl)pyrazin-2-yl]amino}-N-(6-{[1-(3,3,3-trifluoro-propyl)piperidin-4-yl]oxy}pyridin-3-yl)-1,2-thiazole-4-carboxamide, Salt with Hydrochloric Acid], the pIC50 in test [1] is not above 4.70; in test [2], 7.52.
